Assays:
Experiment in all cases: NCI60 antitumor screening
Format in all cases: cell-based, human
[1] = tested on: MCF7
[2] = tested on: MALME-3M
[3] = tested on: SF-539
[4] = tested on: UACC-257
[5] = tested on: OVCAR-4
[6] = tested on: MDA-MB-468
[7] = tested on: NCI-H322M
[8] = tested on: OVCAR-8
[9] = tested on: SNB-19
[10] = tested on: SN12C
[11] = tested on: MOLT-4
[12] = tested on: NCI-H23
[13] = tested on: NCI-H522
[14] = tested on: K-562
[15] = tested on: COLO 205
[16] = tested on: SK-OV-3
[17] = tested on: SK-MEL-28; details: Homo sapiens, SK-MEL-28, five-dose
[18] = Homo sapiens, SF-539, five-dose
[19] = Homo sapiens, OVCAR-4, five-dose
[20] = Homo sapiens, MDA-MB-468, five-dose
[21] = Homo sapiens, NCI-H322M, five-dose

`N#Cc1c(-c2ccc(F)cc2)nc(SCc2ccccc2)nc1N1CCNCC1` [4e, 2-(Benzylthio)-4-(4-fluorophenyl)-6-(piperazin-1-yl) pyrimidine-5-carbonitrile] was tested. Which GI50 ([1]; Homo sapiens, MCF7, five-dose) did it give?
Its GI50 is 3.94 µM.

And the CC50 ([1]; Homo sapiens, MCF7, five-dose, read-out: LC50 (the source's name))?
The CC50 was 44.8 µM.

And the inhibition at 10 µM ([1]; Homo sapiens, 10 μM single dose, MCF7 (breast cancer), read-out: growth inhibition percent (GI%))?
Its inhibition at 10 µM is over 100%.

And the TGI ([1]; five-dose)?
Its TGI is 15.30 µM.

And the GI50 ([2]; Homo sapiens, Malme-3M, five-dose)?
The GI50 was 14.1 µM.

What about the CC50 ([2]; Homo sapiens, Malme-3M, five-dose, read-out: LC50 (the source's name)) of the same molecule?
The CC50 was 56.3 µM.

What about the inhibition at 10 µM ([2]; Homo sapiens, 10 μM single dose, MALME-3M (melanoma), read-out: growth inhibition percent (GI%)) of the same molecule?
Its inhibition at 10 µM is over 100%.

And the TGI ([2]; five-dose)?
Its TGI is 28.20 µM.

What about the GI50 [3, 18] of the same molecule?
Its GI50 is 15.7 µM.

What about the LC50 [3, 18] of the same molecule?
Its LC50 is 54.9 µM.

What about the inhibition at 10 µM ([3]; Homo sapiens, 10 μM single dose, SF-539 (CNS cancer), read-out: growth inhibition percent (GI%)) of the same molecule?
Its inhibition at 10 µM is over 100%.

And the TGI ([3]; five-dose)?
Its TGI is 29.40 µM.

What about the GI50 ([4]; Homo sapiens, UACC-257, five-dose) of the same molecule?
Its GI50 is 13.1 µM.

What about the CC50 ([4]; Homo sapiens, UACC-257, five-dose, read-out: LC50 (the source's name)) of the same molecule?
The CC50 was 52.6 µM.

What about the inhibition at 10 µM ([4]; Homo sapiens, 10 μM single dose, UACC-257 (melanoma), read-out: growth inhibition percent (GI%)) of the same molecule?
The inhibition at 10 µM was over 100%.

And the TGI ([4]; five-dose)?
The TGI was 26.20 µM.

What about the GI50 [5, 19] of the same molecule?
Its GI50 is 15.7 µM.

And the LC50 (lethal concentration, 50% cell kill) [5, 19]?
Its LC50 (lethal concentration, 50% cell kill) is 74.7 µM.

What about the inhibition at 10 µM ([5]; Homo sapiens, 10 μM single dose, OVCAR-4 (ovarian cancer), read-out: growth inhibition percent (GI%)) of the same molecule?
The inhibition at 10 µM was over 100%.

What about the TGI ([5]; five-dose) of the same molecule?
Its TGI is 34.20 µM.

And the GI50 [6, 20]?
The GI50 was 6.71 µM.

And the LC50 [6, 20]?
Its LC50 is 51.6 µM.

What about the inhibition at 10 µM ([6]; Homo sapiens, 10 μM single dose, MDA-MB-468 (breast cancer), read-out: growth inhibition percent (GI%)) of the same molecule?
Its inhibition at 10 µM is over 100%.

And the TGI ([6]; five-dose)?
The TGI was 21.30 µM.

What about the GI50 [7, 21] of the same molecule?
Its GI50 is 14.3 µM.

What about the LC50 (50% lethal concentration) [7, 21] of the same molecule?
Its LC50 (50% lethal concentration) is 54.2 µM.

What about the inhibition at 10 µM ([7]; Homo sapiens, 10 μM single dose, NCI-H322M (non-small cell lung cancer), read-out: growth inhibition percent (GI%)) of the same molecule?
The inhibition at 10 µM was over 100%.

And the TGI ([7]; five-dose)?
The TGI was 27.90 µM.

And the GI50 ([8]; Homo sapiens, OVCAR-8, five-dose)?
Its GI50 is 6.21 µM.

And the CC50 ([8]; Homo sapiens, OVCAR-8, five-dose, read-out: LC50 (the source's name))?
Its CC50 is 59.1 µM.

And the inhibition at 10 µM ([8]; Homo sapiens, 10 μM single dose, OVCAR-8 (ovarian cancer), read-out: growth inhibition percent (GI%))?
Its inhibition at 10 µM is over 100%.

What about the TGI ([8]; five-dose) of the same molecule?
Its TGI is 21.80 µM.

What about the GI50 ([9]; Homo sapiens, SNB-19, five-dose) of the same molecule?
The GI50 was 14.2 µM.

What about the CC50 ([9]; Homo sapiens, SNB-19, five-dose, read-out: LC50 (the source's name)) of the same molecule?
The CC50 was 60.6 µM.

And the inhibition at 10 µM ([9]; Homo sapiens, 10 μM single dose, SNB-19 (CNS cancer), read-out: growth inhibition percent (GI%))?
The inhibition at 10 µM was over 100%.

What about the TGI ([9]; five-dose) of the same molecule?
Its TGI is 29.30 µM.

And the GI50 ([10]; Homo sapiens, SN12C, five-dose)?
The GI50 was 13.8 µM.

What about the CC50 ([10]; Homo sapiens, SN12C, five-dose, read-out: LC50 (the source's name)) of the same molecule?
Its CC50 is 53.8 µM.

What about the inhibition at 10 µM ([10]; Homo sapiens, 10 μM single dose, SN12C (renal cancer), read-out: growth inhibition percent (GI%)) of the same molecule?
The inhibition at 10 µM was over 100%.

What about the TGI ([10]; five-dose) of the same molecule?
The TGI was 27.20 µM.

What about the GI50 ([11]; Homo sapiens, MOLT-4, five-dose) of the same molecule?
The GI50 was 7.07 µM.

What about the CC50 ([11]; Homo sapiens, MOLT-4, five-dose, read-out: LC50 (the source's name)) of the same molecule?
Its CC50 is 52.7 µM.

And the inhibition at 10 µM ([11]; Homo sapiens, 10 μM single dose, MOLT-4 (leukaemia), read-out: growth inhibition percent (GI%))?
Its inhibition at 10 µM is over 100%.

What about the TGI ([11]; five-dose) of the same molecule?
The TGI was 21.20 µM.

And the GI50 ([12]; Homo sapiens, NCI-H23, five-dose)?
Its GI50 is 15.1 µM.

And the CC50 ([12]; Homo sapiens, NCI-H23, five-dose, read-out: LC50 (the source's name))?
Its CC50 is 56.5 µM.

What about the inhibition at 10 µM ([12]; Homo sapiens, 10 μM single dose, NCI-H23 (non-small cell lung cancer), read-out: growth inhibition percent (GI%)) of the same molecule?
The inhibition at 10 µM was over 100%.

And the TGI ([12]; five-dose)?
The TGI was 29.30 µM.

And the GI50 ([13]; Homo sapiens, NCI-H522, five-dose)?
The GI50 was 11.3 µM.

What about the CC50 ([13]; Homo sapiens, NCI-H522, five-dose, read-out: LC50 (the source's name)) of the same molecule?
The CC50 was 55.8 µM.

And the inhibition at 10 µM ([13]; Homo sapiens, 10 μM single dose, NCI-H522 (non-small cell lung cancer), read-out: growth inhibition percent (GI%))?
The inhibition at 10 µM was over 100%.

What about the TGI ([13]; five-dose) of the same molecule?
Its TGI is 25.10 µM.

What about the GI50 ([14]; Homo sapiens, K562, five-dose) of the same molecule?
Its GI50 is 2.21 µM.

What about the CC50 ([14]; Homo sapiens, K562, five-dose, read-out: LC50 (the source's name)) of the same molecule?
The CC50 was 18.7 µM.

And the inhibition at 10 µM ([14]; Homo sapiens, 10 μM single dose, (leukaemia), read-out: growth inhibition percent (GI%))?
The inhibition at 10 µM was over 100%.

What about the TGI ([14]; five-dose) of the same molecule?
Its TGI is 5.42 µM.

What about the IC50 ([15]; Homo sapiens, COLO 205) of the same molecule?
The IC50 was 1.66 µM.

What about the GI50 ([15]; Homo sapiens, COLO 205, five-dose) of the same molecule?
Its GI50 is 1.66 µM.

What about the CC50 ([15]; Homo sapiens, COLO 205, five-dose, read-out: LC50 (the source's name)) of the same molecule?
The CC50 was 6.04 µM.

What about the inhibition at 10 µM ([15]; Homo sapiens, 10 μM single dose, COLO 205 (colon cancer), read-out: growth inhibition percent (GI%)) of the same molecule?
The inhibition at 10 µM was over 100%.

And the TGI ([15]; five-dose)?
The TGI was 3.17 µM.

What about the GI50 ([16]; Homo sapiens, SK-OV-3, five-dose) of the same molecule?
The GI50 was 16 µM.

And the CC50 ([16]; Homo sapiens, SK-OV-3, five-dose, read-out: LC50 (the source's name))?
The CC50 was 54.6 µM.

What about the inhibition at 10 µM ([16]; Homo sapiens, 10 μM single dose, SK-OV-3 (ovarian cancer), read-out: growth inhibition percent (GI%)) of the same molecule?
Its inhibition at 10 µM is over 100%.

And the TGI ([16]; five-dose)?
Its TGI is 29.50 µM.

And the GI50 [17]?
Its GI50 is 16.3 µM.
